From PubChem BioAssay (NCI)
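Here, GI50 denotes the concentration required for 50% inhibition of growth. TGI: total growth inhibition.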

Assays:
Experiment in all cases: NCI tumour cell line growth inhibition, 384-well format
SNB-19 CNS = test system: SNB-19 CNS
A498 renal = test system: A498 renal
OVCAR-3 ovarian = test system: OVCAR-3 ovarian
ACHN renal = test system: ACHN renal
NCI-H460 NSCLC = test system: NCI-H460 NSCLC
MDA-MB-468 breast = test system: MDA-MB-468 breast
A549 NSCLC = test system: A549 NSCLC
T-47D breast = test system: T-47D breast
MDA-MB-231 breast = test system: MDA-MB-231 breast
MOLT-4 leukemia = test system: MOLT-4 leukemia
HCT-15 colon = test system: HCT-15 colon
RXF 393 renal = test system: RXF 393 renal
CCRF-CEM leukemia = test system: CCRF-CEM leukemia
HOP-62 NSCLC = test system: HOP-62 NSCLC
SW-620 colon = test system: SW-620 colon
MDA-MB-435 melanoma = test system: MDA-MB-435 melanoma
NCI-H226 lung = test system: NCI-H226 lung
MALME-3M melanoma = test system: MALME-3M melanoma
SN12C renal = test system: SN12C renal
M14 melanoma = test system: M14 melanoma
NCI-H23 lung = test system: NCI-H23 lung
SNB-75 CNS = test system: SNB-75 CNS
EKVX NSCLC = test system: EKVX NSCLC
NCI/ADR-RES ovarian = test system: NCI/ADR-RES ovarian
IGROV1 ovarian = test system: IGROV1 ovarian
SF-539 CNS = test system: SF-539 CNS
CAKI-1 renal = test system: CAKI-1 renal
KM12 colon = test system: KM12 colon
U251 glioblastoma = test system: U251 glioblastoma
SF-268 CNS = test system: SF-268 CNS
OVCAR-5 ovarian = test system: OVCAR-5 ovarian
HCC-2998 colon = test system: HCC-2998 colon
RPMI-8226 leukemia = test system: RPMI-8226 leukemia
NCI-H522 lung = test system: NCI-H522 lung
COLO 205 colon = test system: COLO 205 colon
OVCAR-8 ovarian = test system: OVCAR-8 ovarian
HS 578T breast = test system: HS 578T breast
OVCAR-4 ovarian = test system: OVCAR-4 ovarian
MCF7 breast = test system: MCF7 breast
NCI-H322M lung = test system: NCI-H322M lung
DU-145 prostate = test system: DU-145 prostate
HOP-92 NSCLC = test system: HOP-92 NSCLC
UACC-62 melanoma = test system: UACC-62 melanoma
PC-3 prostate = test system: PC-3 prostate
TK-10 renal = test system: TK-10 renal
K-562 leukemia = test system: K-562 leukemia
SK-OV-3 ovarian = test system: SK-OV-3 ovarian
SK-MEL-5 melanoma = test system: SK-MEL-5 melanoma
BT-549 breast = test system: BT-549 breast
LOX IMVI melanoma = test system: LOX IMVI melanoma
UACC-257 melanoma = test system: UACC-257 melanoma
786-0 renal = test system: 786-0 renal
HT29 colon = test system: HT29 colon
HCT-116 colon = test system: HCT-116 colon
UO-31 renal = test system: UO-31 renal
SK-MEL-28 melanoma = test system: SK-MEL-28 melanoma
HL-60(TB) leukemia = test system: HL-60(TB) leukemia
SF-295 CNS = test system: SF-295 CNS

Cc1ccc(NC(=O)c2ccnc(C(F)(F)F)c2)cc1-c1cc(OCCO)nc(N2CCOCC2)c1
GI50 (SNB-19 CNS): 2.38 µM
TGI (SNB-19 CNS): 18 µM
GI50 (A498 renal): 1.2 µM
TGI (A498 renal): 7.92 µM
GI50 (OVCAR-3 ovarian): 0.461 µM
TGI (OVCAR-3 ovarian): 1.79 µM
GI50 (ACHN renal): 0.787 µM
TGI (ACHN renal): 12.3 µM
GI50 (NCI-H460 NSCLC): 0.379 µM
TGI (NCI-H460 NSCLC): 10.6 µM
GI50 (MDA-MB-468 breast): 0.359 µM
TGI (MDA-MB-468 breast): 1.27 µM
GI50 (A549 NSCLC): 0.591 µM
TGI (A549 NSCLC): 14.5 µM
GI50 (T-47D breast): 0.754 µM
TGI (T-47D breast): 5.92 µM
GI50 (MDA-MB-231 breast): 0.0373 µM
TGI (MDA-MB-231 breast): 12.1 µM
GI50 (MOLT-4 leukemia): 0.172 µM
TGI (MOLT-4 leukemia): 0.317 µM
GI50 (HCT-15 colon): 0.339 µM
TGI (HCT-15 colon): 9.05 µM
GI50 (RXF 393 renal): 0.342 µM
TGI (RXF 393 renal): 1.96 µM
GI50 (CCRF-CEM leukemia): 0.385 µM
TGI (CCRF-CEM leukemia): 1.46 µM
GI50 (HOP-62 NSCLC): 1.23 µM
TGI (HOP-62 NSCLC): 11.5 µM
GI50 (SW-620 colon): 0.282 µM
TGI (SW-620 colon): 10.5 µM
GI50 (MDA-MB-435 melanoma): 0.289 µM
TGI (MDA-MB-435 melanoma): 0.922 µM
GI50 (NCI-H226 lung): 0.577 µM
TGI (NCI-H226 lung): 6.56 µM
GI50 (MALME-3M melanoma): 0.0856 µM
TGI (MALME-3M melanoma): 0.316 µM
GI50 (SN12C renal): 1.18 µM
TGI (SN12C renal): 10.4 µM
GI50 (M14 melanoma): 0.129 µM
TGI (M14 melanoma): 0.603 µM
GI50 (NCI-H23 lung): 0.0792 µM
TGI (NCI-H23 lung): 1.1 µM
GI50 (SNB-75 CNS): 1.34 µM
TGI (SNB-75 CNS): 9.72 µM
GI50 (EKVX NSCLC): 2.85 µM
TGI (EKVX NSCLC): 14.8 µM
GI50 (NCI/ADR-RES ovarian): 2.19 µM
TGI (NCI/ADR-RES ovarian): 5.24 µM
GI50 (IGROV1 ovarian): 0.697 µM
TGI (IGROV1 ovarian): 11.4 µM
GI50 (SF-539 CNS): 0.927 µM
TGI (SF-539 CNS): 3.75 µM
GI50 (CAKI-1 renal): 0.847 µM
TGI (CAKI-1 renal): 18.1 µM
GI50 (KM12 colon): 0.523 µM
TGI (KM12 colon): 5.77 µM
GI50 (U251 glioblastoma): 0.595 µM
TGI (U251 glioblastoma): 5.43 µM
GI50 (SF-268 CNS): 0.211 µM
TGI (SF-268 CNS): 0.532 µM
GI50 (OVCAR-5 ovarian): 0.675 µM
TGI (OVCAR-5 ovarian): 8.88 µM
GI50 (HCC-2998 colon): 0.224 µM
TGI (HCC-2998 colon): 1.27 µM
GI50 (RPMI-8226 leukemia): 0.344 µM
TGI (RPMI-8226 leukemia): 0.974 µM
GI50 (NCI-H522 lung): 0.274 µM
TGI (NCI-H522 lung): 0.755 µM
GI50 (COLO 205 colon): 0.214 µM
TGI (COLO 205 colon): 1.12 µM
GI50 (OVCAR-8 ovarian): 0.777 µM
TGI (OVCAR-8 ovarian): 4.6 µM
GI50 (HS 578T breast): 1.19 µM
TGI (HS 578T breast): 3.65 µM
GI50 (OVCAR-4 ovarian): 3.87 µM
TGI (OVCAR-4 ovarian): 20 µM
GI50 (MCF7 breast): 0.951 µM
TGI (MCF7 breast): 10.9 µM
GI50 (NCI-H322M lung): 2.01 µM
TGI (NCI-H322M lung): 16.2 µM
GI50 (DU-145 prostate): 2.42 µM
TGI (DU-145 prostate): > 100 µM
GI50 (HOP-92 NSCLC): 0.928 µM
TGI (HOP-92 NSCLC): 3.49 µM
GI50 (UACC-62 melanoma): 0.152 µM
TGI (UACC-62 melanoma): 0.526 µM
GI50 (PC-3 prostate): 0.75 µM
TGI (PC-3 prostate): 14.2 µM
GI50 (TK-10 renal): 1.03 µM
TGI (TK-10 renal): 87.6 µM
GI50 (K-562 leukemia): 0.428 µM
TGI (K-562 leukemia): 1.72 µM
GI50 (SK-OV-3 ovarian): 1.78 µM
TGI (SK-OV-3 ovarian): 17.8 µM
GI50 (SK-MEL-5 melanoma): 0.155 µM
TGI (SK-MEL-5 melanoma): 0.437 µM
GI50 (BT-549 breast): 1.21 µM
TGI (BT-549 breast): 6.68 µM
GI50 (LOX IMVI melanoma): 0.171 µM
TGI (LOX IMVI melanoma): 1.17 µM
GI50 (UACC-257 melanoma): 0.272 µM
TGI (UACC-257 melanoma): 1.31 µM
GI50 ([…]-0 renal): 0.997 µM
TGI (786-0 renal): 11.7 µM
GI50 (HT29 colon): 0.306 µM
TGI (HT29 colon): 1.99 µM
GI50 (HCT-116 colon): 0.243 µM
TGI (HCT-116 colon): 2.48 µM
GI50 (UO-31 renal): 1.12 µM
TGI (UO-31 renal): 3.41 µM
GI50 (SK-MEL-28 melanoma): 0.253 µM
TGI (SK-MEL-28 melanoma): 0.758 µM
GI50 (HL-60(TB) leukemia): 0.068 µM
TGI (HL-60(TB) leukemia): 1.09 µM
GI50 (SF-295 CNS): 0.569 µM
TGI (SF-295 CNS): 13.9 µM
